From ChEMBL document CHEMBL5126611, “Design, Synthesis, and Biological Evaluations of Pyridyl 4,5,6,7-Tetrahydro-4,7-Methanobenzo[d]isoxazoles as Potent and Selective Inhibitors of 11β-Hydroxylase” (J Med Chem, 2022) come the findings set out here.

Data set [1] in a line: Aqueous solubility of compound. The data set is classed as physicochemical. Particulars: buffer.
The nature of data set [2]: Cytotoxicity against human HepG2 cells assessed as reduction in cell viability. The data set is classed as toxicity, cell-based. To be noted: read-out: LC50 (the source's name).
The next data set has as its target Cytochrome P450 2D6 (Homo sapiens, UniProt P10635). As to the kind of experiment: Inhibition of human hepatic recombinant CYP2D6 using cocktail of substrate by LC-MS/MS analysis. The data set is classed as ADME.
The nature of data set [3]: AUC (0 to infinity) in Sprague-Dawley rat at 5 mg/kg, iv measured up to 24 hrs by LC-MS analysis. The data set is classed as ADME, organism-based. Details: time < 24 hrs, dose 5 mg/kg, route iv. Particulars: in vivo.
A short description of data set [4]: Cmax in Sprague-Dawley rat at 5 mg/kg, iv measured up to 24 hrs by LC-MS analysis. The data set is classed as ADME, organism-based. Details: dose 5 mg/kg, time < 24 hrs, route iv. Particulars: in vivo.
A further data set addresses T1, Cytochrome P450 1A2 (Homo sapiens, UniProt P05177).
T1 sequence (P05177 whole entry): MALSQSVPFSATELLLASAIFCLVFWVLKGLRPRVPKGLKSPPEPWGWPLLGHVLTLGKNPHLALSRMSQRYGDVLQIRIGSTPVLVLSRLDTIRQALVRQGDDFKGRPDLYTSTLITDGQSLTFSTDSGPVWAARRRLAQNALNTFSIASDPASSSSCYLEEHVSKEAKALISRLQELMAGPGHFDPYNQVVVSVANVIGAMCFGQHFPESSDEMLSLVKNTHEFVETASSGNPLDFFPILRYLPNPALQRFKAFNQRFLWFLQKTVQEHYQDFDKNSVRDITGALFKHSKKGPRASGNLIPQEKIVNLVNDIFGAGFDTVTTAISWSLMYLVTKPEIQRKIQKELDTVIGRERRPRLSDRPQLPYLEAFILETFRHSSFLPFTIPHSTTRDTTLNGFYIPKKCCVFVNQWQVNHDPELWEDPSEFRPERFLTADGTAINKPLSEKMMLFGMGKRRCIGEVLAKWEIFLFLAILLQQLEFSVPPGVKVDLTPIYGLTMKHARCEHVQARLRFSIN
As to the kind of experiment: Inhibition of human hepatic recombinant CYP1A2 using cocktail of substrate by LC-MS/MS analysis. The data set is classed as ADME.

Another data set concerns the target Cytochrome P450 3A4 (Homo sapiens, UniProt P08684). Description: Inhibition of human hepatic recombinant CYP3A using cocktail of substrate by LC-MS/MS analysis. The data set is classed as ADME.
Data set [5] is described as follows: Selectivity ratio of IC50 for inhibition of rat CYP11B2 to IC50 for inhibition of rat CYP11B1. The data set is classed as ADME.
Data set [6] has as its target T2, Cytochrome P450 11B1, mitochondrial (Homo sapiens, UniProt P15538).
T2 sequence (P15538 whole entry): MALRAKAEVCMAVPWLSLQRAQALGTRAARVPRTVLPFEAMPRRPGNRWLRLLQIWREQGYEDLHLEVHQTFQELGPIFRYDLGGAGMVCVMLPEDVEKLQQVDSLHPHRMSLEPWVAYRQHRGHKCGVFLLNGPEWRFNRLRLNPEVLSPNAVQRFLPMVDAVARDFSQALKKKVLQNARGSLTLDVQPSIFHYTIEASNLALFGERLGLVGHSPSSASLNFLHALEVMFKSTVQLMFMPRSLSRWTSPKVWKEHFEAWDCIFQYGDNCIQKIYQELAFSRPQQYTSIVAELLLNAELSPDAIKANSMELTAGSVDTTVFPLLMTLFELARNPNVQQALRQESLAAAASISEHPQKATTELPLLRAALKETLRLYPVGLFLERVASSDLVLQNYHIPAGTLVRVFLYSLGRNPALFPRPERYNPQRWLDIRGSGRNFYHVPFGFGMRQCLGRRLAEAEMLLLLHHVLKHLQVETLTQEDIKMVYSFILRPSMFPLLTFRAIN
Description: Inhibition of human CYP11B1 expressed in Chinese hamster V79 MZh cells using [14C]-deoxycorticosteron as substrate measured after 6 hrs by phosphoimager analysis. The data set is classed as ADME, cell-based.

Data set [7] can be described thus: Tmax in Sprague-Dawley rat at 5 mg/kg, iv measured up to 24 hrs by LC-MS analysis. The data set is classed as ADME, organism-based. Particulars: in vivo.
Data set [8] has as its target T3, Steroid 17-alpha-hydroxylase/17,20 lyase (Homo sapiens, UniProt P05093).
T3 sequence (P05093 whole entry): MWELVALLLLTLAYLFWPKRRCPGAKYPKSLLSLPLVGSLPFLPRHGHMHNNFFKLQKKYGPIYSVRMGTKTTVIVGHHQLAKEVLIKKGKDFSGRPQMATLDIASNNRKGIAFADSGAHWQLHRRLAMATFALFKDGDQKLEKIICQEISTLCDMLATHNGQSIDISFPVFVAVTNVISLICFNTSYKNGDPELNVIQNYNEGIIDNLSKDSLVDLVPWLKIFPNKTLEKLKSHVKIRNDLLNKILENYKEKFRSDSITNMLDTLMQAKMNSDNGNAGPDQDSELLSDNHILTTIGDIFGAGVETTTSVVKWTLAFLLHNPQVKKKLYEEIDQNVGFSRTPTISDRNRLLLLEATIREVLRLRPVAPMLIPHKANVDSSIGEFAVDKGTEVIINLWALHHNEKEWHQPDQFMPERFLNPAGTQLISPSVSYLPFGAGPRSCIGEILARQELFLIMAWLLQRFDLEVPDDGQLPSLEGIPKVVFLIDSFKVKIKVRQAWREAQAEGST
Description: Inhibition of human CYP17 expressed in Escherichia coli. The data set is classed as ADME.

The nature of data set [9]: Clearance in Sprague-Dawley rat at 5 mg/kg, iv measured up to 24 hrs by LC-MS analysis. The data set is classed as ADME, organism-based. To be noted: in vivo.
Data set [10] can be described thus: Cmax in Sprague-Dawley rat at 25 mg/kg, po measured up to 24 hrs by LC-MS analysis. The data set is classed as ADME, organism-based. On the set-up: dose 25 mg/kg, time < 24 hrs, route po. To be noted: in vivo.
A short description of data set [11]: Bioavailability in Sprague-Dawley rat at 5 mg/kg, iv measured up to 24 hrs by LC-MS analysis. The data set is classed as ADME, organism-based. Particulars: in vivo.
A further data set concerns the target Cytochrome P450 2C9 (Homo sapiens, UniProt P11712). As to the kind of experiment: Inhibition of human hepatic recombinant CYP2C9 using cocktail of substrate by LC-MS/MS analysis. The data set is classed as ADME.
The nature of data set [12]: Reduction of cortisol elevation in Sprague-Dawley rat at 25 mg/kg, po measured after 4 hrs by liquid chromatography-tandem mass spectrometry analysis (reference value: 376+/- 22 ng/L). The data set is classed as functional.
The next data set concerns the target T4, Aromatase (Homo sapiens, UniProt P11511).
T4 sequence (P11511 whole entry): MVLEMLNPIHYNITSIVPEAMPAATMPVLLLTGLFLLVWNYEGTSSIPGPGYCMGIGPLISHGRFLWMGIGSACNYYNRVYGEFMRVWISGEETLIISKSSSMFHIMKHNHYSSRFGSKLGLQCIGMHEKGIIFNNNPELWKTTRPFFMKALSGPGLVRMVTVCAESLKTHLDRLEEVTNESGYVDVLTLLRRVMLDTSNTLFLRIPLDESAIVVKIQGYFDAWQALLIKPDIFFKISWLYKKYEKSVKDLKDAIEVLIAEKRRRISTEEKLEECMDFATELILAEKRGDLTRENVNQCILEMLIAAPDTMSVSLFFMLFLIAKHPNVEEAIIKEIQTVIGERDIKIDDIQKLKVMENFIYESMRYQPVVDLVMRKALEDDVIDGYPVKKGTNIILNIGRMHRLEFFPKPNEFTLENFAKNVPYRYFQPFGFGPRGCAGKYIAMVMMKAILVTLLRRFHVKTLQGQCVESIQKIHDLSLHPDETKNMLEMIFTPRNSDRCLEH
Description: Inhibition of human placental microsome CYP19 using [1beta-3H]-androstenedione as substrate. The data set is classed as ADME, microsomes, Placenta.

In brackets after ≈: the same amount, converted by molar mass.

Chain of Cytochrome P450 2D6 (P10635 whole entry): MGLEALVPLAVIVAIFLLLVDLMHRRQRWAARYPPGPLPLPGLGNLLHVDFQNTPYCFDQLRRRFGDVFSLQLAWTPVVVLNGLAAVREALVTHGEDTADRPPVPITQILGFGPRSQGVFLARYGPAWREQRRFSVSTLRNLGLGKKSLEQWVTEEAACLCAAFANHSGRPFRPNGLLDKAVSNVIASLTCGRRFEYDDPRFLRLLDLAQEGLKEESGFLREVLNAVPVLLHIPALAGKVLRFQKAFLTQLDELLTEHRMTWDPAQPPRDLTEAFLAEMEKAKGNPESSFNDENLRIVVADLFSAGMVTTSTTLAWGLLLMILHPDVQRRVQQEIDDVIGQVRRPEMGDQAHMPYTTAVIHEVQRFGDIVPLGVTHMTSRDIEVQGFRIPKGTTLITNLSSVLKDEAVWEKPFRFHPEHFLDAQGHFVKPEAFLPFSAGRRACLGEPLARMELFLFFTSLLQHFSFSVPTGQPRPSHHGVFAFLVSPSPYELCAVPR
Chain of Cytochrome P450 3A4 (P08684 whole entry): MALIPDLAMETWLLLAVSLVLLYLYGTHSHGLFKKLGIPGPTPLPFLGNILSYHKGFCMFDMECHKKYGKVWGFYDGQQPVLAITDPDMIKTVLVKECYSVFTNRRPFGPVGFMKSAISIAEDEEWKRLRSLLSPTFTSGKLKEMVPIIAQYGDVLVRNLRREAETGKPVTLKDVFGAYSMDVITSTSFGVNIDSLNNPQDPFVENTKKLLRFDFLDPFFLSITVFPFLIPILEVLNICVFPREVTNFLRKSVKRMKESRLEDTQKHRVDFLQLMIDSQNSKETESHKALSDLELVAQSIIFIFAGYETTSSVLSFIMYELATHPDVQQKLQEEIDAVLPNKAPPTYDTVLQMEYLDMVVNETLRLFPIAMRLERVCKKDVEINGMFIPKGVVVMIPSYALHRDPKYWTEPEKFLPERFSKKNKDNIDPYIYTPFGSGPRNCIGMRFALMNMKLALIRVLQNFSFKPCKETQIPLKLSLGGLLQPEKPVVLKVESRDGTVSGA
Chain of Cytochrome P450 2C9 (P11712 whole entry): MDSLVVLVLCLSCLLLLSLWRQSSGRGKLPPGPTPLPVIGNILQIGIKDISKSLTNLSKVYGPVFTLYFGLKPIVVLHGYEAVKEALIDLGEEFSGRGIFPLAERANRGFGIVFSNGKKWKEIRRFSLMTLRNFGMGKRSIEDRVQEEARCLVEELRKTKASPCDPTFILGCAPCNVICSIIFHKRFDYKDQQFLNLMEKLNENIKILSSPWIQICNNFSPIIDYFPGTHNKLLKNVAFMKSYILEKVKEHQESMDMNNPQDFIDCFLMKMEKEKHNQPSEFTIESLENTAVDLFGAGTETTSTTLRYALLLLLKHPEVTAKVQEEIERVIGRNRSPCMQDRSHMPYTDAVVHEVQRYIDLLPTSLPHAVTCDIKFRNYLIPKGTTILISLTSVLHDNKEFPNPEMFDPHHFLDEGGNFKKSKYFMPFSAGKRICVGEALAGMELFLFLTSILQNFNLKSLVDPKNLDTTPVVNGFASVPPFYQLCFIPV

As to `O=C(Nc1ccc2[nH]ncc2c1)[C@]12ON=C(c3cccnc3)[C@H]1[C@@H]1CC[C@H]2C1`, the solubility in data set [1] was determined as 196 µM (≈ 73.2 µg/mL). For the same molecule, the CC50 in data set [2] is greater than 50 µM. The IC50 is greater than 10 µM at Cytochrome P450 2D6; greater than 10 µM on Cytochrome P450 1A2; greater than 10 µM at Cytochrome P450 3A4; 0.009 µM in [6]; greater than 10 µM in data set [8]; greater than 10 µM at Cytochrome P450 2C9. At Aromatase, the IC50 was greater than 10 µM. The molecule further came in with an AUC in data set [3] of 50928.7 ng·h/mL. Moreover, the results for the Cmax in data set [4] and in data set [10] were 12700 ng/mL and 7990 ng/mL, respectively. The “Ratio IC50” value in data set [5] came out at 81. The time of peak concentration (Tmax) in data set [7] was 0 h. Further, the CL in data set [9] came to 0.287 mL/min/kg. This molecule also came in with a bioavailability in data set [11] of 21.4%. The molecule further registered an Activity in data set [12] of 28 ng/L.

For orientation: solubility means the dissolved amount per volume that the medium holds. Read a low solubility as a poorly soluble substance. Broadly, the IC50 is the concentration at which inhibition is half-maximal. In general, AUC refers to concentration integrated over time. By Cmax is commonly meant the peak of the concentration-time curve. The Tmax is the time at which the peak concentration occurs. Broadly, the bioavailability is dose-corrected exposure relative to a reference, in per cent. Low values mean little systemic uptake, high ones much systemic uptake.
